# Columns and labels:
# chronic stress rat [1] = assay: Chronic unpredictable stress model of rat: open-field activity test; assay type: in vivo; conditions: stress rats, day 28, 5 min
# Description: (§1) Animals: SD rats, male, weighing 150-180 g, SPF grade.
# (§2) Formulation and administration mode of drugs: All drugs for the test were suspended and dispersed with a 0.5% aqueous solution of CMC-Na, and shaken well before use. The rats were administered by i.g. at a volume of 10 mL/kg.
# (§3) Rats were acclimatized for 3 days after purchase. First, 48 h of sucrose training was performed. After the training, a sucrose baseline test was performed. The rats were randomly and evenly grouped according to sucrose preference. Then, (dl) a 4-week chronic unpredictable stress (CUS) procedure was performed with the following stress methods: (1) food deprivation (fasting); (2) water deprivation; (3) stroboflash; (4) overnight illumination; (5) wet feeding (200 ml of water was added to 150 g of sawdust bedding); (6) noise stimulation (110 dB), 1 h; (7) swimming in cold water (the water temperature was 10° C.); (8) cage tilt (45 degrees of inclination); (9) tail pinch (at 1 cm away from the tail root) for 6 min; (10) restraint for 1-2 h. One of the above stress methods was used randomly every day, but water deprivation and fasting were separated. The corresponding drugs (including the blank control group and the positive drug group) were given 1 h before the stress in the morning every day. Behavior test was performed after the end of the chronic stress. d25, sucrose preference; d28, open-field; d31, novelty-suppressed feeding test.
# On the 28th day of the stress program, the rats were placed in the middle compartment of an open chamber, and a 60 W light bulb was placed 45 cm directly above them. The activities of the rats were observed within 5 minutes, including the number of times crossing a compartment horizontally (the number of times crossing into an adjacent compartment with three or more claws), and the number of times rearing (the number of times the forelimbs are more than 1 cm off the ground). Note: the test environment of the test should be kept as quiet as possible; the rats should be placed in the same position and direction each time; and the animal's excretion should be removed after each test.
# [2] = In vitro metabolism study, human liver microsomal incubation system; assay type: in vitro ADME
# Description: TSQ Quantum liquid chromatography-mass spectrometer (LC/MS/MS) from Finnigan Inc, USA, chromatography column: TSKgel Amide-80 column (2.0 mm I.D.×100 mm, 5 μm); mobile phase: acetonitrile-water-formic acid (50:50:0.1); flow rate: 0.2 mL/min; injection volume: 5 μL; column temperature: room temperature. Ionization source is electrospray ionization (ESI) with 4.8 KV of spray voltage; capillary temperature (TEM): 300° C.; sheath gas: N2, flow rate: 10 psi; auxiliary gas: N2, flow rate: 1 psi; collision gas (CID): Ar at a pressure of 1.5 mTorr. The mass spectrometry scanning method was selective reaction monitoring (SRM) and detected by positive ion method. The internal standard was a […] solution of aconitine in acetonitrile, the minimum limit of quantification was 5 ng/mL, and the correlation coefficient was >0.99.
# Approximately 10 mg of each sample to be tested was accurately weighed, dissolved in 0.1 mL of DMSO, and serially diluted with purified water to a 10 μM, 1 μM standard stock solution. An ice bath was operated and the incubation system for detection was formulated according to Table 4. NADPH was added to the incubation system to start the reaction, and then 50 μL was immediately added to 150 μL acetonitrile as a zero-time sample and a 1 μM standard curve sample. Another 1 μM standard stock solution was added to the incubation system, and then 50 μL was immediately added to 150 μL acetonitrile as a 0.1 μM standard curve sample. […] Each sample was shaken, and centrifuged at 18000 g for 10 min. The supernatant was taken for LC/MS/MS injection and determination.
# SD rats = assay: Anxiety behavior model of repeatedly administrated rat: O-maze test; assay type: in vivo; conditions: D21, 5 minutes
# Description: The requirements for test animals, drug formulation and administration were the same as those of the rat chronic mild stress model.
# Instruments: Vogel drinking anxiety device for rat and O-maze device for rat were manufactured by Shanghai XinRuan Company. The rat feeding chamber was a home-made white plastic box (60×45×25 cm).
# The rats were administrated continuously by i.g. once a day. A novelty-suppressed feeding test, a Vogel drinking conflict test, and an O-maze test were performed on a different day, respectively. Each behavior test was performed at 9:00-12:00, and the administration time was 16:00-17:00. The test process was as follows: D12, novelty-suppressed feeding test (animals were fasted for 48 hours before the test); D18, Vogel drinking conflict test (animals were banned from water for 48 hours before the test); D21, O-maze test.
# An O-maze device was placed in the center of a dark room and illuminated with an infrared light during the test. The animal was placed in the center of a closed arm of an O-maze track, timed for 5 minutes, and the activity of the rat in the maze was monitored by an infrared camera. Animals in each group were given a single intragastric administration 60 min before the test. Observation indicators were the number of times the rat entered the open arm and the accumulated dwell time in the open arm.
# Kunming mice = assay: Acute toxicity test of mouse; assay type: in vivo
# Description: Mice were administered by i.g. at doses of 5000 mg/kg and 2000 mg/kg. The drugs were dispersed with a 1% aqueous solution of hydroxypropyl methylcellulose (HPMC), and the administration volume was calculated in accordance with 0.2 mL/10 g.
# chronic stress rat [3] = assay: Chronic unpredictable stress model of rat: sucrose preference test; assay type: in vivo; conditions: for Sucrose preference (%) Before modeling: baseline before modeling; for Sucrose preference (%) After 4 weeks of administration: stress rats
# Description: as §1, §2, §3
# Rats were acclimatized for 3 days after purchase. The rats were trained to give sucrose aqueous solution for 48 h without food and water supply, only 1% aqueous solution of sucrose was given for the first 24 h, and 1% aqueous solution of sucrose and tap water were simultaneously given for the next 24 h. After the end of the training, the rats were fed with normal food and water for 3 days, and then a sucrose preference baseline was determined: after fasting and water deprivation for 14 h, rats were allowed to drink freely two different bottles of water, one of which was 1% aqueous solution of sucrose and the other was tap water. The intakes (g) of rats from these two bottles within 1 hour were measured to calculate the sucrose preference. Sucrose preference (%)=intake of aqueous solution of sucrose/(intake of aqueous solution of sucrose+intake of tap water)×100%. On the 25th day of the stress program, the same method was used to perform the sucrose preference test again to calculate the sucrose preference.
# [4] = incubation time 0 min, 1 μM, 1 mg/mL microsome, 37° C.
Compound,Number of times crossing a compartment horizontally (chronic stress rat [1]; 10 mg/kg i.g. daily),Number of times rearing (chronic stress rat [1]; 10 mg/kg i.g. daily),Number of times crossing a compartment horizontally (chronic stress rat [1]; 20 mg/kg i.g. daily),Number of times rearing (chronic stress rat [1]; 20 mg/kg i.g. daily),Number of times crossing a compartment horizontally (chronic stress rat [1]; 40 mg/kg i.g. daily),Number of times rearing (chronic stress rat [1]; 40 mg/kg i.g. daily),"Concentration measured at incubation time point [2, 4]",Concentration measured at incubation time point ([2]; incubation time 5 min),Concentration measured at incubation time point ([2]; incubation time 15 min),Dwell time in the open arm (SD rats; 10 mg/kg i.g.),Number of times entering the open arm (SD rats; 10 mg/kg i.g.),Dwell time in the open arm (SD rats; 20 mg/kg i.g.),Number of times entering the open arm (SD rats; 20 mg/kg i.g.),Dwell time in the open arm (SD rats; 40 mg/kg i.g.),Number of times entering the open arm (SD rats; 40 mg/kg i.g.),"Acute reaction after single administration (Kunming mice; mice, 2000 mg/kg i.g.)","Adverse reactions during 14-day observation (Kunming mice; mice, 2000 mg/kg i.g.)","Body weight compared with the blank group (Kunming mice; mice, 2000 mg/kg i.g.)","Acute reaction after single administration (Kunming mice; mice, 5000 mg/kg i.g.)",Sucrose preference (%) Before modeling (chronic stress rat [3]; group later dosed 20 mg/kg),further results
"COc1ccc2cccc(CCNC(C)=O)c2c1 [Agomelatine, reference compound]",33.4 ± 4.2,18.1 ± 1.1,33.9 ± 2.4,16.7 ± 1.8,38.9 ± 3.6,17.3 ± 1.1,999 ± 59 nM,539 ± 19 nM,9 ± 5 nM,126 ± 15 s,2.25 ± 0.4,196 ± 30 s,3.1 ± 0.8,170 ± 29 s,6.2 ± 1.0,the mice all fell into a coma 15 minutes after the administration,no obvious adverse reactions within 14 days after the administration,the body weight was lighter on the first and second days after the administration with a significant difference,the mice all fell into a coma 15 minutes after the administration and died successively after 12 hours,65.6 ± 10.1%,"Number of mice that died within 12 hours (Kunming mice; mice, 2000 mg/kg i.g., group of 10): 4 mice; Sucrose preference (%) After 4 weeks of administration (chronic stress rat [3]; 10 mg/kg i.g. daily): 84.3 ± 3.6 %; Sucrose preference (%) After 4 weeks of administration (chronic stress rat [3]; 20 mg/kg i.g. daily): 66.6 ± 6.7%; Sucrose preference (%) After 4 weeks of administration (chronic stress rat [3]; 40 mg/kg i.g. daily): 76.1 ± 5.3 %"
"[2H]C([2H])([2H])Oc1cc2c(CCNC(C)=O)cccc2cc1Cl [Example 1, N-(2-(6-chloro-7-deuteromethoxy-naphthalen-1-yl)ethyl)acetamide]",36.4 ± 4.2,14.6 ± 1.7,36.5 ± 2.9,15.9 ± 1.1,34.9 ± 3.0,17 ± 1.5,1001 ± 19 nM,793 ± 108 nM,194 ± 46 nM,201 ± 17 s,8.8 ± 0.9,245 ± 6 s,10.89 ± 0.7,171 ± 27 s,6.3 ± 1.1,the activity of the mice became slightly smaller but there were no obvious adverse reactions,no obvious adverse reactions within 14 days after the administration,no significant difference in body weight compared with the blank group,"the mice began to fall into a coma 15 minutes after the administration, and within 24 hours the mice all awakened and returned to normal",60.1 ± 4.4%,"Number of times crossing a compartment horizontally (chronic stress rat [1]; 5 mg/kg i.g. daily): 36.8 ± 4.4; Number of times rearing (chronic stress rat [1]; 5 mg/kg i.g. daily): 15.1 ± 1.3; Metabolic stability in human liver microsome (comparison) ([2]; compared among examples and controls): highest metabolic stability; Concentration measured at incubation time point ([2]; incubation time 30 min): 110 ± 88 nM; Dwell time in the open arm (SD rats; 5 mg/kg i.g.): 131 ± 30 s; Number of times entering the open arm (SD rats; 5 mg/kg i.g.): 4.8 ± 0.9; Adverse reactions during 14-day observation (Kunming mice; mice, 5000 mg/kg i.g.): no obvious adverse reactions within 14 days after the administration; Body weight compared with the blank group (Kunming mice; mice, 5000 mg/kg i.g.): no significant difference in body weight compared with the blank group; Safety compared with control drug (Kunming mice; mouse model, overall): safer than the control drug Agomelatine; Sucrose preference (%) Before modeling (chronic stress rat [3]; group later dosed 5 mg/kg): 55.5 ± 7.8%; Sucrose preference (%) After 4 weeks of administration (chronic stress rat [3]; 5 mg/kg i.g. daily): 80.4 ± 3.1 %; Sucrose preference (%) After 4 weeks of administration (chronic stress rat [3]; 10 mg/kg i.g. daily): 78.4 ± 4.4 %; Sucrose preference (%) After 4 weeks of administration (chronic stress rat [3]; 20 mg/kg i.g. daily): 78.8 ± 6.1 %; Sucrose preference (%) After 4 weeks of administration (chronic stress rat [3]; 40 mg/kg i.g. daily): 83.3 ± 1.9 %"
